Measured values as given in patent publication US20250368653A1, “SOLID FORMS COMPRISING (S)-7-(1-ACRYLOYLPIPERIDIN-4-YL)-2-(4-PHENOXYPHENYL)-4,5,6,7-TETRAHYDROPYRAZOLO[1,5-A]PYRIMIDINE-3-CARBOXAMIDE, AND OXALIC ACID, COMPOSITIONS AND METHODS OF USE THEREOF” (BeiGene Switzerland GmbH, priority 2022, published 2025).
Values after ≈ are worked out from the molar mass of the structure shown. Where two headings read alike, the source gives them in different places.

Assays:
[1] = Solubility experiment in water; type: physicochemical; conditions: solid loading 2 mg/mL; for solubility at 1 h / solubility at 2 h / solubility at 4 h / solubility at 24 h: thermodynamic from solid, read-out: S: solubility
Method: Table 7 and Table 8 provide summaries of solubility experiment in water at 37° C. and 25° C., respectively.

[2] = DVS water uptake; type: physicochemical; conditions: 25° C./80% RH

Row | SMILES | FC: solid form change ([1]; 25° C., 1 hr) | pH ([1]; 25° C., 1 hr) | FC: solid form change ([1]; 25° C., 2 hrs) | pH ([1]; 25° C., 2 hrs) | FC: solid form change ([1]; 25° C., 4 hrs) | pH ([1]; 25° C., 4 hrs) | FC: solid form change ([1]; 25° C., 24 hrs) | pH ([1]; 25° C., 24 hrs) | FC: solid form change ([1]; 37° C., 1 hr) | pH ([1]; 37° C., 1 hr) | FC: solid form change ([1]; 37° C., 2 hrs) | pH ([1]; 37° C., 2 hrs) | FC: solid form change ([1]; 37° C., 4 hrs) | pH ([1]; 37° C., 4 hrs) | FC: solid form change ([1]; 37° C., 24 hrs) | pH ([1]; 37° C., 24 hrs) | S: solubility ([1]; 25° C., 1 hr) | S: solubility ([1]; 25° C., 2 hrs) | S: solubility ([1]; 25° C., 4 hrs) | S: solubility ([1]; 25° C., 24 hrs) | further results
1 | C=CC(=O)N1CCC([C@@H]2CCNc3c(C(N)=O)c(-c4ccc(Oc5ccccc5)cc4)nn32)CC1 [Form 1] | No | 3.36 | No | 3.09 | No | 3.01 | No | 2.76 | Gel | 3.22 | Gel | 2.97 | Gel | 3.01 | Gel | 2.74 | – | – | – | – | solubility at 1 h ([1]; 25 °C, 25° C., 1 hr): 75 µg/mL (≈ 159 µM); solubility at 2 h ([1]; 25 °C, 25° C., 2 hrs): 78 µg/mL (≈ 165 µM); solubility at 4 h ([1]; 25 °C, 25° C., 4 hrs): 77 µg/mL (≈ 163 µM); solubility at 24 h ([1]; 25 °C, 25° C., 24 hrs): 75 µg/mL (≈ 159 µM); solubility at 1 h ([1]; 37 °C, 37° C., 1 hr): 90 µg/mL (≈ 191 µM); solubility at 2 h ([1]; 37 °C, 37° C., 2 hrs): 88 µg/mL (≈ 187 µM); solubility at 4 h ([1]; 37 °C, 37° C., 4 hrs): 73 µg/mL (≈ 155 µM); solubility at 24 h ([1]; 37 °C, 37° C., 24 hrs): 82 µg/mL (≈ 174 µM); hygroscopicity [2]: non hygroscopic; water uptake [2]: lower than 0.2%
2 | C=CC(=O)N1CCC([C@@H]2CCNc3c(C(N)=O)c(-c4ccc(Oc5ccccc5)cc4)nn32)CC1 [Freebase Amorphous] | No | 8.55 | No | 8.57 | No | 8.51 | No | 7.68 | Gel | 8.78 | Gel | 8.77 | Gel | 8.60 | Gel | 7.74 | 74 µg/mL | 81 µg/mL | 78 µg/mL | 72 µg/mL | S: solubility ([1]; 37° C., 1 hr): 89 µg/mL; S: solubility ([1]; 37° C., 2 hrs): 89 µg/mL; S: solubility ([1]; 37° C., 4 hrs): 84 µg/mL; S: solubility ([1]; 37° C., 24 hrs): 78 µg/mL
3 | C=CC(=O)N1CCC([C@@H]2CCNc3c(C(N)=O)c(-c4ccc(Oc5ccccc5)cc4)nn32)CC1 [Freebase Form A] | No | 8.66 | No | 8.66 | No | 8.57 | No | 7.85 | No | 8.76 | No | 8.77 | No | 8.63 | No | 7.67 | 44 µg/mL | 46 µg/mL | 40 µg/mL | 47 µg/mL | S: solubility ([1]; 37° C., 1 hr): 55 µg/mL; S: solubility ([1]; 37° C., 2 hrs): 57 µg/mL; S: solubility ([1]; 37° C., 4 hrs): 59 µg/mL; S: solubility ([1]; 37° C., 24 hrs): 56 µg/mL
